Assay results: PubChem BioAssay AID256 (DTP/NCI, 2004)
“And” between values parts separate entries of the source, which are not always exact repeats. Equal entries are not always repeated. Toxic doses and inconclusive results are not listed. Rule for the calls: active = survival T/C of 150% or more; inactive = T/C below 125% in these data.

System: CD2F1 mice, L1210 leukemia ip, survival T/C
Assay: NCI In Vivo Anticancer Drug Screen. Data for tumor model L1210 Leukemia (intraperitoneal) in CD2F1 (CDF1) mice
Settings: higher = longer survival
Outline: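 Compound-dosed mice with transplantable tumor versus matched vehicle controls; endpoint ratio T/C reported.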

[1] = endpoint: mean survival time, dose: 100.0 mg/kg/injection, schedule: Q01DX009 (ip), vehicle: other
[2] = endpoint: mean survival time, dose: 200.0 mg/kg/injection, schedule: Q01DX009 (ip), vehicle: other
[3] = endpoint: mean survival time, dose: 400.0 mg/kg/injection, schedule: Q01DX009 (ip), vehicle: other
[4] = endpoint: mean survival time, dose: 100.0 mg/kg/injection, schedule: Q01DX009 (ip), vehicle: saline with Tween-80
[5] = endpoint: mean survival time, dose: 200.0 mg/kg/injection, schedule: Q01DX009 (ip), vehicle: saline with Tween-80
[6] = endpoint: mean survival time, dose: 400.0 mg/kg/injection, schedule: Q01DX009 (ip), vehicle: saline with Tween-80
[7] = endpoint: mean survival time, dose: 100.0 mg/kg/injection, schedule: Q04DX002 (ip), vehicle: saline with Tween-80
[8] = endpoint: mean survival time, dose: 200.0 mg/kg/injection, schedule: Q04DX002 (ip), vehicle: saline with Tween-80
[9] = endpoint: mean survival time, dose: 400.0 mg/kg/injection, schedule: Q04DX002 (ip), vehicle: saline with Tween-80
[10] = endpoint: mean survival time, dose: 100.0 mg/kg/injection, schedule: Q04DX003 (ip), vehicle: saline with Tween-80
[11] = endpoint: mean survival time, dose: 200.0 mg/kg/injection, schedule: Q04DX003 (ip), vehicle: saline with Tween-80
[12] = endpoint: mean survival time, dose: 400.0 mg/kg/injection, schedule: Q04DX003 (ip), vehicle: saline with Tween-80
[13] = endpoint: mean survival time, dose: 100.0 mg/kg/injection, schedule: Q01DX001 (ip), vehicle: saline with Tween-80
[14] = endpoint: mean survival time, dose: 200.0 mg/kg/injection, schedule: Q01DX001 (ip), vehicle: saline with Tween-80
[15] = endpoint: mean survival time, dose: 12.5 mg/kg/injection, schedule: Q01DX009 (ip), vehicle: water
[16] = endpoint: mean survival time, dose: 25.0 mg/kg/injection, schedule: Q01DX009 (ip), vehicle: water
[17] = endpoint: mean survival time, dose: 50.0 mg/kg/injection, schedule: Q01DX009 (ip), vehicle: water
[18] = endpoint: mean survival time, dose: 100.0 mg/kg/injection, schedule: Q01DX009 (ip), vehicle: water
[19] = endpoint: mean survival time, dose: 200.0 mg/kg/injection, schedule: Q01DX009 (ip), vehicle: water
[20] = endpoint: mean survival time, dose: 100.0 mg/kg/injection, schedule: Q01DX001 (ip), vehicle: saline
[21] = endpoint: mean survival time, dose: 200.0 mg/kg/injection, schedule: Q01DX001 (ip), vehicle: saline
[22] = endpoint: mean survival time, dose: 400.0 mg/kg/injection, schedule: Q01DX001 (ip), vehicle: saline

Measured: T/C

O=C(NCCCl)NCCCl
inactive: endpoint: median survival time, dose: 267.0 mg/kg/injection, schedule: Q07DX003 (ip), vehicle: saline 103 % of control | endpoint: median survival time, dose: 400.0 mg/kg/injection, schedule: Q07DX003 (ip), vehicle: saline 97 % of control | endpoint: median survival time, dose: 600.0 mg/kg/injection, schedule: Q07DX003 (ip), vehicle: saline 94 % of control | endpoint: median survival time, dose: 800.0 mg/kg/injection, schedule: Q07DX003 (ip), vehicle: saline 99 % of control and 100 % of control

c1ccc2c(c1)ccc1c3ccccc3[nH]c21
inactive: [1] 94 % of control | [2] 97 % of control | [3] 96 % of control

CCOC(=O)CC(c1ccccc1)C(C(=O)OCC)C(=O)OCC (stereo unspecified)
inactive: [4] 91 % of control | [5] 91 % of control | [6] 98 % of control

O=C(COc1ccc(Br)cc1)Nc1cc(Cl)ccc1Cl
inactive: [7] 87 % of control | [8] 95 % of control | [9] 91 % of control

COc1ccc(-n2cnnn2)cc1
inactive: [10] 101 % of control | [11] 106 % of control | [12] 112 % of control

CCCCCCCCCCCCCCCCOC(=O)c1cc([N+](=O)[O-])c(Sc2ncnc3nc[nH]c23)c([N+](=O)[O-])c1
inactive: endpoint: mean survival time, dose: 6.25 mg/kg/injection, schedule: Q01DX005 (ip), vehicle: other 105 % of control | endpoint: mean survival time, dose: 12.5 mg/kg/injection, schedule: Q01DX005 (ip), vehicle: other 110 % of control | endpoint: mean survival time, dose: 25.0 mg/kg/injection, schedule: Q01DX005 (ip), vehicle: other 107 % of control | endpoint: mean survival time, dose: 50.0 mg/kg/injection, schedule: Q01DX005 (ip), vehicle: other 117 % of control | endpoint: mean survival time, dose: 100.0 mg/kg/injection, schedule: Q01DX005 (ip), vehicle: other 102 % of control

Cc1cc(OC(=O)Nc2cccc(Cl)c2Cl)ccc1Cl
inactive: [1] 101 % of control | [2] 103 % of control | [3] 106 % of control

CC(C)(C)OC(=O)NC(Cc1c[nH]c2ccccc12)C(=O)ON1C(=O)CCC1=O (stereo unspecified)
inactive: [10] 95 % of control | [11] 95 % of control

C=C1CC2C=CC1C2 (stereo unspecified) (tested in a mixture with another compound)
inactive: endpoint: mean survival time, dose: 80.5 mg/kg/injection, schedule: Q01DX009 (ip), vehicle: saline with Tween-80 90 % of control

CCOC(=O)CC(C)(CC(=O)OCC)C(C#N)C(=O)OCC (stereo unspecified)
inactive: [10] 116 % of control | [11] 119 % of control | [12] 120 % of control

O=C1NC(=O)C(c2ccccc2)(C2CCC2)N1 (stereo unspecified)
inactive: [10] 95 % of control | [12] 88 % of control

O=C(c1ccc(Cl)cc1)c1no[n+]([O-])c1C(=O)c1ccc(Cl)cc1
inactive: [4] 94 % of control | [10] 107 % of control | [5] 100 % of control | [11] 95 % of control | [6] 94 % of control | [12] 95 % of control

CC(=O)Nc1cccc(OCCOc2ccccc2[N+](=O)[O-])c1
inactive: endpoint: mean survival time, dose: 100.0 mg/kg/injection, schedule: Q04DX002 (ip), vehicle: Klucel (hydroxypropylcellulose) (HPC) 95 % of control | endpoint: mean survival time, dose: 200.0 mg/kg/injection, schedule: Q04DX002 (ip), vehicle: Klucel (hydroxypropylcellulose) (HPC) 107 % of control | endpoint: mean survival time, dose: 400.0 mg/kg/injection, schedule: Q04DX002 (ip), vehicle: Klucel (hydroxypropylcellulose) (HPC) 103 % of control

CC(=O)Nc1c(Cl)c(Cl)c(Cl)c2c1-c1ccc(Cl)cc1C2
inactive: [13] 95 % of control | [4] 98 % of control | [14] 101 % of control | [5] 103 % of control | endpoint: mean survival time, dose: 400.0 mg/kg/injection, schedule: Q01DX001 (ip), vehicle: saline with Tween-80 100 % of control | [6] 103 % of control

O=C(CCCl)c1ccccc1
inactive: endpoint: mean survival time, dose: 25.0 mg/kg/injection, schedule: Q01DX009 (ip), vehicle: other 104 % of control | endpoint: mean survival time, dose: 50.0 mg/kg/injection, schedule: Q01DX009 (ip), vehicle: other 100 % of control | [1] 92 % of control and 96 % of control

CCOC(=O)C(C)C(=O)C(C)N1C(=O)c2ccccc2C1=O (stereo unspecified)
inactive: [15] 95 % of control | [16] 95 % of control | [17] 95 % of control | [18] 100 % of control | [19] 96 % of control

COc1ccc(OC)c(CC(CC(=O)O)C(C)=O)c1 (stereo unspecified)
inactive: [15] 96 % of control | [16] 100 % of control | [17] 96 % of control | [18] 96 % of control | [19] 100 % of control

NC(=O)c1ncn(CCCCCO)c1N
inactive: endpoint: mean survival time, dose: 100.0 mg/kg/injection, schedule: Q01DX001 (ip), vehicle: other 91 % of control | endpoint: mean survival time, dose: 200.0 mg/kg/injection, schedule: Q01DX001 (ip), vehicle: other 103 % of control | endpoint: mean survival time, dose: 400.0 mg/kg/injection, schedule: Q01DX001 (ip), vehicle: other 101 % of control

C=C(c1cn(C(C)=O)c2ccccc12)c1cn(C(C)=O)c2ccccc12
inactive: [4] 95 % of control | [5] 96 % of control | [6] 98 % of control

NN1CCOC1=O
inactive: [13] 97 % of control | [14] 100 % of control

COCCNC1=C(C)C(=O)C2=C(C1=O)[C@H](COC(N)=O)[C@]1(OC)[C@@H]3N[C@@H]3CN21
inactive: endpoint: mean survival time, dose: 3.0 mg/kg/injection, schedule: Q01DX001 (ip), vehicle: distilled water + Tween-80 114 % of control | endpoint: mean survival time, dose: 24.0 mg/kg/injection, schedule: Q01DX001 (ip), vehicle: distilled water + Tween-80 123 % of control

Cc1cc(F)ccc1[As](=O)(O)O
inactive: endpoint: mean survival time, dose: 6.25 mg/kg/injection, schedule: Q04DX003 (ip), vehicle: saline with Tween-80 103 % of control | endpoint: mean survival time, dose: 12.5 mg/kg/injection, schedule: Q04DX003 (ip), vehicle: saline with Tween-80 95 % of control | endpoint: mean survival time, dose: 25.0 mg/kg/injection, schedule: Q04DX003 (ip), vehicle: saline with Tween-80 97 % of control

O=[N+]([O-])c1ccc(F)cc1
inactive: endpoint: mean survival time, dose: 10.0 mg/kg/injection, schedule: Q04DX003 (ip), vehicle: saline 104 % of control | endpoint: mean survival time, dose: 20.0 mg/kg/injection, schedule: Q04DX003 (ip), vehicle: saline 102 % of control | endpoint: mean survival time, dose: 40.0 mg/kg/injection, schedule: Q04DX003 (ip), vehicle: saline 102 % of control

CN(CCC#N)C1=CCCC1
inactive: endpoint: mean survival time, dose: 100.0 mg/kg/injection, schedule: Q01DX009 (ip), vehicle: saline 102 % of control | endpoint: mean survival time, dose: 200.0 mg/kg/injection, schedule: Q01DX009 (ip), vehicle: saline 112 % of control | endpoint: mean survival time, dose: 400.0 mg/kg/injection, schedule: Q01DX009 (ip), vehicle: saline 105 % of control

C/C(=N/Nc1ccc([N+](=O)[O-])cc1[N+](=O)[O-])C(C)C
inactive: endpoint: mean survival time, dose: 75.0 mg/kg/injection, schedule: Q04DX002 (ip), vehicle: saline with Tween-80 95 % of control | endpoint: mean survival time, dose: 150.0 mg/kg/injection, schedule: Q04DX002 (ip), vehicle: saline with Tween-80 98 % of control | endpoint: mean survival time, dose: 300.0 mg/kg/injection, schedule: Q04DX002 (ip), vehicle: saline with Tween-80 98 % of control

CC(C)C1CCC(C)C(C(O)(C(F)(F)F)C(F)(F)F)C1O (stereo unspecified)
inactive: [20] 101 % of control | [7] 98 % of control | [21] 101 % of control | [8] 98 % of control | [22] 97 % of control | [9] 94 % of control

c1ccc(-c2nnc(-c3ccccn3)o2)nc1
inactive: endpoint: mean survival time, dose: 25.0 mg/kg/injection, schedule: Q04DX002 (ip), vehicle: saline with Tween-80 102 % of control | endpoint: mean survival time, dose: 50.0 mg/kg/injection, schedule: Q04DX002 (ip), vehicle: saline with Tween-80 98 % of control | [7] 107 % of control

O=C(CNC(=O)Nc1cccc([N+](=O)[O-])c1)NNC(=O)Nc1ccc(Cl)c([N+](=O)[O-])c1
inactive: [4] 91 % of control | [5] 87 % of control

CCC1Cc2c([nH]c(=O)n(-c3ccccc3)c2=O)O1 (stereo unspecified)
inactive: [20] 95 % of control | [21] 98 % of control | [22] 92 % of control
